# Data reported in PubChem BioAssay (NCI).
#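 Cultured in 96-well plates, cells were exposed to test compound for 48 hours across five concentrations. TGI marks complete inhibition of growth.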
# Assays:
# Assay in all cases: NCI anticancer screen, dose series, 48 h
# MOLT-4 leukemia = test system: MOLT-4 leukemia
# M14 melanoma = test system: M14 melanoma
# SK-OV-3 ovarian = test system: SK-OV-3 ovarian
# T-47D breast = test system: T-47D breast
# CCRF-CEM leukemia = test system: CCRF-CEM leukemia
# RPMI-8226 leukemia = test system: RPMI-8226 leukemia
# SF-539 CNS = test system: SF-539 CNS
# PC-3 prostate = test system: PC-3 prostate
# SK-MEL-2 melanoma = test system: SK-MEL-2 melanoma
# DU-145 prostate = test system: DU-145 prostate
# SNB-75 CNS = test system: SNB-75 CNS
# TK-10 renal = test system: TK-10 renal
# NCI-H522 lung = test system: NCI-H522 lung
# OVCAR-3 ovarian = test system: OVCAR-3 ovarian
# NCI-H23 lung = test system: NCI-H23 lung
# HCT-116 colon = test system: HCT-116 colon
# OVCAR-4 ovarian = test system: OVCAR-4 ovarian
# MDA-MB-435 = test system: MDA-MB-435
# ACHN renal = test system: ACHN renal
# SR leukemia = test system: SR leukemia
# LOX IMVI melanoma = test system: LOX IMVI melanoma
# HT29 colon = test system: HT29 colon
# NCI-H460 lung = test system: NCI-H460 lung
# SF-268 CNS = test system: SF-268 CNS
# U251 CNS = test system: U251 CNS
# BT-549 breast = test system: BT-549 breast
# NCI-H226 lung = test system: NCI-H226 lung
# COLO 205 colon = test system: COLO 205 colon
# UACC-257 melanoma = test system: UACC-257 melanoma
# 786-0 renal = test system: 786-0 renal
# A498 renal = test system: A498 renal
# SN12C renal = test system: SN12C renal
# NCI/ADR-RES ovarian = test system: NCI/ADR-RES ovarian
# K-562 leukemia = test system: K-562 leukemia
# SK-MEL-5 melanoma = test system: SK-MEL-5 melanoma
# KM12 colon = test system: KM12 colon
# UO-31 renal = test system: UO-31 renal
# MALME-3M melanoma = test system: MALME-3M melanoma
# EKVX NSCLC = test system: EKVX NSCLC
# RXF 393 renal = test system: RXF 393 renal
# HCT-15 colon = test system: HCT-15 colon
# UACC-62 melanoma = test system: UACC-62 melanoma
# HS 578T breast = test system: HS 578T breast
# OVCAR-8 ovarian = test system: OVCAR-8 ovarian
# MCF7 breast = test system: MCF7 breast
# SF-295 CNS = test system: SF-295 CNS
# SNB-19 CNS = test system: SNB-19 CNS
# CAKI-1 renal = test system: CAKI-1 renal
# IGROV1 ovarian = test system: IGROV1 ovarian
# HOP-62 NSCLC = test system: HOP-62 NSCLC
# HOP-92 NSCLC = test system: HOP-92 NSCLC
# MDA-N = test system: MDA-N
# HL-60(TB) leukemia = test system: HL-60(TB) leukemia
# A549 NSCLC = test system: A549 NSCLC
# OVCAR-5 ovarian = test system: OVCAR-5 ovarian
# SW-620 colon = test system: SW-620 colon
compound,measurement,setting,value
O=C1/C(=C/C=C/c2ccccc2)N=C(c2ccccc2)N1c1ccc(S(=O)(=O)Nc2nccs2)cc1,TGI,MOLT-4 leukemia,> 100 µM
same,TGI,M14 melanoma,> 100 µM
same,TGI,SK-OV-3 ovarian,85.2 µM
same,TGI,T-47D breast,> 100 µM
same,TGI,CCRF-CEM leukemia,> 100 µM
same,TGI,RPMI-8226 leukemia,68.2 µM
same,TGI,SF-539 CNS,45.9 µM
same,TGI,PC-3 prostate,> 100 µM
same,TGI,SK-MEL-2 melanoma,86.6 µM
same,TGI,DU-145 prostate,> 100 µM
same,TGI,SNB-75 CNS,> 100 µM
same,TGI,TK-10 renal,> 100 µM
same,TGI,NCI-H522 lung,36.6 µM
same,TGI,OVCAR-3 ovarian,48.2 µM
same,TGI,NCI-H23 lung,63.8 µM
same,TGI,HCT-116 colon,> 100 µM
same,TGI,OVCAR-4 ovarian,> 100 µM
same,TGI,MDA-MB-435,> 100 µM
same,TGI,ACHN renal,34.5 µM
same,TGI,SR leukemia,> 100 µM
same,TGI,LOX IMVI melanoma,55.1 µM
same,TGI,HT29 colon,49.8 µM
same,TGI,NCI-H460 lung,> 100 µM
same,TGI,SF-268 CNS,39.8 µM
same,TGI,U251 CNS,59.3 µM
same,TGI,BT-549 breast,61.4 µM
same,TGI,NCI-H226 lung,55.5 µM
same,TGI,COLO 205 colon,35.5 µM
same,TGI,UACC-257 melanoma,> 100 µM
same,TGI,786-0 renal,> 100 µM
same,TGI,A498 renal,> 100 µM
same,TGI,SN12C renal,> 100 µM
same,TGI,NCI/ADR-RES ovarian,> 100 µM
same,TGI,K-562 leukemia,> 100 µM
same,TGI,SK-MEL-5 melanoma,54 µM
same,TGI,KM12 colon,> 100 µM
same,TGI,UO-31 renal,29.9 µM
same,TGI,MALME-3M melanoma,> 100 µM
same,TGI,EKVX NSCLC,84.7 µM
same,TGI,RXF 393 renal,30.1 µM
same,TGI,HCT-15 colon,> 100 µM
same,TGI,UACC-62 melanoma,61.7 µM
same,TGI,HS 578T breast,> 100 µM
same,TGI,OVCAR-8 ovarian,> 100 µM
same,TGI,MCF7 breast,> 100 µM
same,TGI,SF-295 CNS,> 100 µM
same,TGI,SNB-19 CNS,> 100 µM
same,TGI,CAKI-1 renal,> 100 µM
same,TGI,IGROV1 ovarian,44.5 µM
same,TGI,HOP-62 NSCLC,> 100 µM
same,TGI,HOP-92 NSCLC,> 100 µM
same,TGI,MDA-N,> 100 µM
same,TGI,HL-60(TB) leukemia,> 100 µM
same,TGI,A549 NSCLC,> 100 µM
same,TGI,OVCAR-5 ovarian,> 100 µM
same,TGI,SW-620 colon,> 100 µM
